# Results as given in PubChem BioAssay (NCI).
#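 Dose response: 5 concentrations. Exposure: 48 h. Format: 96-well plates. Endpoint: linear interpolation; highest concentration if not reached. GI50 is the concentration that inhibits growth by half. TGI marks complete inhibition of growth.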
# Key:
# Assay in all cases: NCI tumour cell line growth inhibition, 48 h
# SNB-75 CNS = test system: SNB-75 CNS
# SN12C renal = test system: SN12C renal
# NCI-H226 lung = test system: NCI-H226 lung
# HCT-116 colon = test system: HCT-116 colon
# ACHN renal = test system: ACHN renal
# CAKI-1 renal = test system: CAKI-1 renal
# HCT-15 colon = test system: HCT-15 colon
# HCC-2998 colon = test system: HCC-2998 colon
# SR leukemia = test system: SR leukemia
# HS 578T breast = test system: HS 578T breast
Structure (SMILES),TGI (SNB-75 CNS) [µM],TGI (SN12C renal) [µM],TGI (NCI-H226 lung) [µM],TGI (HCT-116 colon) [µM],TGI (ACHN renal) [µM],TGI (CAKI-1 renal) [µM],TGI (HCT-15 colon) [µM],TGI (HCC-2998 colon) [µM],TGI (SR leukemia) [µM],TGI (HS 578T breast) [µM],GI50 (SNB-75 CNS) [µM],GI50 (SN12C renal) [µM],GI50 (NCI-H226 lung) [µM],GI50 (HS 578T breast) [µM],GI50 (HCT-116 colon) [µM],GI50 (ACHN renal) [µM],GI50 (CAKI-1 renal) [µM],GI50 (HCT-15 colon) [µM],GI50 (HCC-2998 colon) [µM],GI50 (SR leukemia) [µM]
Nc1nc(N)c(N=Nc2ccccc2)c(=O)[nH]1,23.7,> 100,> 100,> 100,96.7,> 100,> 100,> 100,> 100,–,–,–,–,–,–,–,–,–,–,–
CC=C/C=C/[C@@H]1O[C@](O)([C@H](CC)C(=O)NC/C=C/C=C(\C)[C@@H](OC)[C@@H](C)[C@@H]2O[C@H](/C=C/C=C/C=C(\C)C(=O)c3c(O)cc[nH]c3=O)[C@H](O)[C@@H]2O)[C@H](O)[C@H](O)C1(C)C,> 100,–,–,–,> 100,–,> 100,> 100,> 100,> 100,–,–,–,–,–,–,–,–,–,–
OCC1NC(CO)C(O)C1O (stereo not drawn),> 100,> 100,> 100,> 100,–,> 100,> 100,> 100,> 100,> 100,–,–,–,–,–,–,–,–,–,–
COc1ccc(/C=C/c2cc(O)cc(OC3OC(CO)C(O)C(O)C3O)c2)cc1O (stereo not drawn),> 100,> 100,> 100,> 100,> 100,> 100,> 100,> 100,> 100,> 100,–,–,–,–,–,–,–,–,–,–
CCOP(=O)(OCC)C(Cc1c[nH]c2ccccc12)C(=O)O (stereo not drawn),> 100,> 100,> 100,> 100,> 100,> 100,> 100,> 100,> 100,> 100,–,–,–,–,–,–,–,–,–,–
COc1ccc(CCn2ccc(C)n2)c(OC)c1,> 100,> 100,–,> 100,> 100,> 100,> 100,–,–,> 100,–,–,–,–,–,–,–,–,–,–
O=C(Nc1ccc(C(F)(F)F)cc1[N+](=O)[O-])C(=O)Nn1c(=S)[nH]c2ccccc2c1=O,> 100,> 100,> 100,> 100,> 100,> 100,> 100,> 100,> 100,–,–,–,–,–,–,–,–,–,–,–
COc1ncnc2c(Cl)c(C(O)c3ccccc3)c(Cl)cc12 (stereo not drawn),97.8,86.8,–,44.1,97.2,> 100,> 100,–,22.7,49.9,–,–,–,–,–,–,–,–,–,–
CC(=O)OC/C=C\Cn1ncc(=O)[nH]c1=O,33.9,42,36,–,43.8,–,37.5,35,–,> 100,–,–,–,–,–,–,–,–,–,–
Fc1ccc(C2CC(c3cccc(Nc4ccncc4)c3)=NN2c2ccccc2)cc1 (stereo not drawn),2.87,3.21,8.78,3.12,3.11,3.02,3.49,3,5.67,3.8,1.29,1.71,2.48,1.81,1.49,1.71,1.6,1.68,1.63,2.17
Nc1ccc(C2(c3ccc(N)cc3)C3CC4CC(C3)CC2C4)cc1,–,45.7,45.1,42.1,32.7,31.9,37.2,41,> 100,–,–,–,–,–,–,–,–,–,–,–
